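The compound was tested at five concentrations on cells cultured in 96-well plates, with a 48-hour exposure period. TGI denotes the concentration required for complete inhibition of growth.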
Legend:
Assay in all cases: NCI tumour cell line growth inhibition, 48 h
SNB-78 CNS = test system: SNB-78 CNS
KM20L2 colon = test system: KM20L2 colon
CAKI-1 renal = test system: CAKI-1 renal
M19-MEL melanoma = test system: M19-MEL melanoma
SN12C renal = test system: SN12C renal
HCT-15 colon = test system: HCT-15 colon
U251 CNS = test system: U251 CNS
SK-MEL-2 melanoma = test system: SK-MEL-2 melanoma
RXF 393 renal = test system: RXF 393 renal
TK-10 renal = test system: TK-10 renal
HCC-2998 colon = test system: HCC-2998 colon
SK-MEL-5 melanoma = test system: SK-MEL-5 melanoma
K-562 leukemia = test system: K-562 leukemia
NCI-H23 lung = test system: NCI-H23 lung
MALME-3M melanoma = test system: MALME-3M melanoma
SF-295 CNS = test system: SF-295 CNS
SNB-19 CNS = test system: SNB-19 CNS
OVCAR-8 ovarian = test system: OVCAR-8 ovarian
RXF-631 renal = test system: RXF-631 renal
SK-MEL-28 melanoma = test system: SK-MEL-28 melanoma
SW-620 colon = test system: SW-620 colon
OVCAR-5 ovarian = test system: OVCAR-5 ovarian
HT29 colon = test system: HT29 colon
MOLT-4 leukemia = test system: MOLT-4 leukemia
IGROV1 ovarian = test system: IGROV1 ovarian
OVCAR-3 ovarian = test system: OVCAR-3 ovarian
UO-31 renal = test system: UO-31 renal
COLO 205 colon = test system: COLO 205 colon
KM12 colon = test system: KM12 colon
SK-OV-3 ovarian = test system: SK-OV-3 ovarian
OVCAR-4 ovarian = test system: OVCAR-4 ovarian
XF 498 CNS = test system: XF 498 CNS
NCI-H522 lung = test system: NCI-H522 lung
UACC-62 melanoma = test system: UACC-62 melanoma
DLD-1 colon = test system: DLD-1 colon
CCRF-CEM leukemia = test system: CCRF-CEM leukemia
SR leukemia = test system: SR leukemia
M14 melanoma = test system: M14 melanoma
HOP-92 NSCLC = test system: HOP-92 NSCLC
HOP-62 NSCLC = test system: HOP-62 NSCLC
HCT-116 colon = test system: HCT-116 colon
DMS 114 small cell lung = test system: DMS 114 small cell lung
LOX IMVI melanoma = test system: LOX IMVI melanoma
EKVX NSCLC = test system: EKVX NSCLC
NCI-H460 lung = test system: NCI-H460 lung
HOP-18 NSCLC = test system: HOP-18 NSCLC
RPMI-8226 leukemia = test system: RPMI-8226 leukemia
SF-539 CNS = test system: SF-539 CNS
SF-268 CNS = test system: SF-268 CNS
A549 NSCLC = test system: A549 NSCLC
LXFL 529 NSCLC = test system: LXFL 529 NSCLC
DMS 273 small cell lung = test system: DMS 273 small cell lung
A498 renal = test system: A498 renal
HL-60(TB) leukemia = test system: HL-60(TB) leukemia
SNB-75 CNS = test system: SNB-75 CNS
NCI-H226 lung = test system: NCI-H226 lung
786-0 renal = test system: 786-0 renal
UACC-257 melanoma = test system: UACC-257 melanoma

With `COc1ccccc1/C=C1\N=C(C)OC1=O` the TGI (SNB-78 CNS) was greater than 100 µM, the TGI (KM20L2 colon) was greater than 100 µM and the TGI (CAKI-1 renal) was greater than 100 µM. The TGI (M19-MEL melanoma) was greater than 100 µM, the TGI (SN12C renal) was greater than 100 µM and the TGI (HCT-15 colon) was greater than 100 µM. The TGI (U251 CNS) was greater than 100 µM, the TGI (SK-MEL-2 melanoma) was greater than 100 µM and the TGI (RXF 393 renal) was greater than 100 µM. The TGI (TK-10 renal) was greater than 100 µM, the TGI (HCC-2998 colon) was greater than 100 µM and the TGI (SK-MEL-5 melanoma) was greater than 100 µM. It also gave a TGI (K-562 leukemia) greater than 100 µM, a TGI (NCI-H23 lung) greater than 100 µM and a TGI (MALME-3M melanoma) greater than 100 µM. The TGI (SF-295 CNS) was greater than 100 µM, the TGI (SNB-19 CNS) was greater than 100 µM and the TGI (OVCAR-8 ovarian) was greater than 100 µM. For the same compound, the TGI (RXF-631 renal) was greater than 100 µM, the TGI (SK-MEL-28 melanoma) was greater than 100 µM and the TGI (SW-620 colon) was greater than 100 µM. For the same compound, the TGI (OVCAR-5 ovarian) was greater than 100 µM, the TGI (HT29 colon) was greater than 100 µM and the TGI (MOLT-4 leukemia) was greater than 100 µM. For the same compound, the TGI (IGROV1 ovarian) was greater than 100 µM, the TGI (OVCAR-3 ovarian) was greater than 100 µM and the TGI (UO-31 renal) was greater than 100 µM. It also gave a TGI (COLO 205 colon) greater than 100 µM, a TGI (KM12 colon) greater than 100 µM and a TGI (SK-OV-3 ovarian) greater than 100 µM. The TGI (OVCAR-4 ovarian) was greater than 100 µM, the TGI (XF 498 CNS) was greater than 100 µM and the TGI (NCI-H522 lung) was greater than 100 µM. It also gave a TGI (UACC-62 melanoma) greater than 100 µM, a TGI (DLD-1 colon) greater than 100 µM and a TGI (CCRF-CEM leukemia) greater than 100 µM. The TGI (SR leukemia) was greater than 100 µM, the TGI (M14 melanoma) was greater than 100 µM and the TGI (HOP-92 NSCLC) was greater than 100 µM.
In the case of `Cc1ccc(S(=O)(=O)Nc2cccc(C)c2C)cc1`, the TGI (SNB-78 CNS) is reported as greater than 100 µM, the TGI (M19-MEL melanoma) is reported as greater than 100 µM and the TGI (SN12C renal) is reported as greater than 100 µM. For the same compound, the TGI (HCT-15 colon) was greater than 100 µM, the TGI (U251 CNS) was 79.9 µM and the TGI (HOP-62 NSCLC) was greater than 100 µM. The TGI (RXF 393 renal) was 84 µM, the TGI (TK-10 renal) was greater than 100 µM and the TGI (HCC-2998 colon) was greater than 100 µM. It also gave a TGI (HCT-116 colon) greater than 100 µM, a TGI (SK-MEL-5 melanoma) greater than 100 µM and a TGI (DMS 114 small cell lung) greater than 100 µM. For the same compound, the TGI (K-562 leukemia) was greater than 100 µM, the TGI (NCI-H23 lung) was greater than 100 µM and the TGI (MALME-3M melanoma) was greater than 100 µM. It also gave a TGI (SF-295 CNS) greater than 100 µM, a TGI (SNB-19 CNS) greater than 100 µM and a TGI (OVCAR-8 ovarian) greater than 100 µM. For the same compound, the TGI (RXF-631 renal) was greater than 100 µM, the TGI (LOX IMVI melanoma) was greater than 100 µM and the TGI (EKVX NSCLC) was greater than 100 µM. It also gave a TGI (NCI-H460 lung) greater than 100 µM, a TGI (SK-MEL-28 melanoma) of 81.5 µM and a TGI (HOP-18 NSCLC) greater than 100 µM. For the same compound, the TGI (RPMI-8226 leukemia) was greater than 100 µM, the TGI (SW-620 colon) was greater than 100 µM and the TGI (SF-539 CNS) was greater than 100 µM. It also gave a TGI (OVCAR-5 ovarian) greater than 100 µM, a TGI (HT29 colon) greater than 100 µM and a TGI (MOLT-4 leukemia) greater than 100 µM. For the same compound, the TGI (IGROV1 ovarian) was greater than 100 µM, the TGI (OVCAR-3 ovarian) was greater than 100 µM and the TGI (SF-268 CNS) was greater than 100 µM. For the same compound, the TGI (A549 NSCLC) was greater than 100 µM, the TGI (LXFL 529 NSCLC) was greater than 100 µM and the TGI (DMS 273 small cell lung) was greater than 100 µM. It also gave a TGI (A498 renal) greater than 100 µM, a TGI (UO-31 renal) greater than 100 µM and a TGI (COLO 205 colon) greater than 100 µM. It also gave a TGI (KM12 colon) greater than 100 µM, a TGI (SK-OV-3 ovarian) greater than 100 µM and a TGI (HL-60(TB) leukemia) of 87.1 µM. For the same compound, the TGI (OVCAR-4 ovarian) was greater than 100 µM, the TGI (SNB-75 CNS) was 86.8 µM and the TGI (UACC-62 melanoma) was greater than 100 µM. For the same compound, the TGI (CCRF-CEM leukemia) was greater than 100 µM, the TGI (NCI-H226 lung) was greater than 100 µM and the TGI (786-0 renal) was greater than 100 µM. For the same compound, the TGI (SR leukemia) was greater than 100 µM, the TGI (M14 melanoma) was greater than 100 µM and the TGI (HOP-92 NSCLC) was greater than 100 µM. For the same compound, the TGI (UACC-257 melanoma) was greater than 100 µM.
